From patent US8063062B2, “Compounds with a combination of cannabinoid-CB1 antagonism and acetylcholinesterase inhibition” (Solvay Pharmaceuticals B.V., priority 2006, dated 2011) come the findings set out here.

In assay [1] the target is T1, acetylcholinesterase (Homo sapiens, UniProt P22303).
Assay [2] addresses human cannabinoid CB1 receptor (Homo sapiens, UniProt P21554). The assay can be described thus: biochemical.
Procedure: After incubation of a freshly prepared cell membrane preparation with the [^3H]-ligand, with or without addition of compounds of the invention, separation of bound and free ligand was performed by filtration over glass fiber filters. Radioactivity on the filter was measured by liquid scintillation counting.
Assay [3] deals with T1, acetylcholinesterase. The assay can be described thus: biochemical.

pIC50, pKi: −log10 of the molar value. Read-outs that look alike come from different tables or passages of the source.

T1 sequence (P22303 32-614): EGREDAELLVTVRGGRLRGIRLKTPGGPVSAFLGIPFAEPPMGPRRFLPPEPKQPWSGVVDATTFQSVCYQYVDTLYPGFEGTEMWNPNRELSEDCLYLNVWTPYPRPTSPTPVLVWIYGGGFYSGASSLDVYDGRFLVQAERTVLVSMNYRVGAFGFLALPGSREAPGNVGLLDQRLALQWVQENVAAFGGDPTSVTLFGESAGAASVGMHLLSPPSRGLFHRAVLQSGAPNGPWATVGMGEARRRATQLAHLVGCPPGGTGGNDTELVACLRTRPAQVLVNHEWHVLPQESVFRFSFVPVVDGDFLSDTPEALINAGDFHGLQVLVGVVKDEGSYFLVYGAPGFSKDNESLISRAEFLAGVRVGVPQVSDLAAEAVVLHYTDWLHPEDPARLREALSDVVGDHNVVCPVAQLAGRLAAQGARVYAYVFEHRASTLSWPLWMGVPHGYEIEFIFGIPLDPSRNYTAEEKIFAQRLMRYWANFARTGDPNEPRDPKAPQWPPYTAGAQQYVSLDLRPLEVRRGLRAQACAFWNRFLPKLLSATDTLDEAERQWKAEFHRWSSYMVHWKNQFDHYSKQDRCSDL
Sequence of human cannabinoid CB1 receptor (P21554 whole entry): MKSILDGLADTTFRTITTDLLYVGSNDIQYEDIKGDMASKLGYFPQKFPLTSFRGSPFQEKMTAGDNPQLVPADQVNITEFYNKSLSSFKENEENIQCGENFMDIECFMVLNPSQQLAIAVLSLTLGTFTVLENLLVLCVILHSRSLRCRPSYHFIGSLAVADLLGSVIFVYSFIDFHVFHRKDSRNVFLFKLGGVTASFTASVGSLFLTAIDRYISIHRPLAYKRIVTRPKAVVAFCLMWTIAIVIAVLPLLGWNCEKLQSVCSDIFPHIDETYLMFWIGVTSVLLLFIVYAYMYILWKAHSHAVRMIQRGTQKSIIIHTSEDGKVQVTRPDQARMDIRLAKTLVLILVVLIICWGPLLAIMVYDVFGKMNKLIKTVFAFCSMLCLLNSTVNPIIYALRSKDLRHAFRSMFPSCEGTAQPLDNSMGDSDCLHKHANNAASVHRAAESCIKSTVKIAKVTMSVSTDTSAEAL

One may read the pIC50 as −log10 of the IC50, conventionally taken in molar units. Low readings indicate a high IC50, high ones a low IC50. What is called pKi is the negative decadic logarithm of the Ki, by convention in mol/L. A low value points to a large Ki. For the compound `O=S(=O)(/N=C(/NCCCCNc1c2c(nc3ccccc13)CCCC2)N1CC(c2ccccc2)C(c2ccc(Cl)cc2)=N1)c1ccc(Cl)cc1` (stereo not shown) [compound 2, 4-chloro-N-{[3-(4-chlorophenyl)-4-phenyl-4,5-dihydro-1H-pyrazolyl]-[7-(1,2,3,4-tetrahydroacridin-9-yl-amino)butylamino]methylene}benzene sulfonamide], the pIC50 on acetylcholinesterase [1] was 5.60. In assay [2], this compound gave a pKi of 7.40.

With `Cc1c(C(=O)NN2CCCCC2)nn(-c2ccc(Cl)cc2Cl)c1-c1ccc(Cl)cc1` [rimonabant], at acetylcholinesterase [1], the negative logarithm of the IC50 (pIC50) was 4.60.

On acetylcholinesterase [3], `CN=C(NS(=O)(=O)c1ccc(Cl)cc1)N1C[C@H](c2ccccc2)C(c2ccc(Cl)cc2)=N1` [SLV319] had a pIC50 of 5.20.
